Test results published in patent publication US20240084258A1, “METHOD FOR PREPARING BROWN ADIPOCYTE” (KYOTO PREFECTURAL PUBLIC UNIVERSITY CORPORATION, priority 2015, published 2024).

How the values were obtained:
Format in all cases: cell-based
[1] = tested on: human dermal fibroblasts (HDFs); test: Oil Red O staining of fibroblasts cultured with compounds (Example 1); conditions: adipocyte induction medium with T3 1 nM and Rosiglitazone 1 μM, D4476 2 μM, SB431542 2 μM, ALK5 Inhibitor II 2 M, Pifithrin alpha 5 μM, day 14, FIG. 1
Experimental: The next day, the culture supernatant was removed by suction and, as described in the Figure, a normal medium, an adipocyte induction medium, or an adipocyte induction medium added with the compound and the like was added at 500 μL/well.
The adipocyte induction medium is a 10% FBS-added DMEM+MDI medium (10% FBS-added DMEM supplemented with 0.5 mM isobutylmethylxanthine (IBMX), 0.5 μM dexamethason and 1 μg/mL Insulin).
The concentrations of the additives are as follows: • T3: 1 nM • Rosiglitazone: 1 μM • D4476: 2 μM • Pifithrin alpha [p53 inhibitor]: 5 μM • SB431542: 2 μM • ALK5 Inhibitor II: […].
The culture medium was substituted by a fresh one every 3-4 days and the cells were cultured up to day 14.
After washing 3 times with sterile distilled water, Oil Red O staining solution was added, and the mixture was incubated at room temperature for 15 min. Then, the cells were washed with sterile distilled water and photographed at a magnification of 100 with a phase contrast microscope.

[2] = tested on: human dermal fibroblasts (HDFs); test: CIDEA gene mRNA by real time RT-PCR (Example 4); conditions: induction medium + T3 + Rosiglitazone, compounds 2 μM, day 14, FIG. 4
Experimental: (§1) The next day, the culture supernatant was removed by suction and, as described in the Figure, a normal medium, an adipocyte induction medium, or an adipocyte induction medium added with each compound and the like was added at 500 μL/well. […] The concentrations of the additives are as follows: • T3: 1 nM • Rosiglitazone: 1 μM • D4476: 2 μM • Pifithrin alpha [p53 inhibitor]: 5 μM • SB431542: 2 μM • ALK5 Inhibitor II: 2 μM. The culture medium was substituted by a fresh one every 3 4 days and the cells were cultured up to day 14.

[3] = tested on: human dermal fibroblasts (HDFs); test: AdipoQ gene mRNA by real time RT-PCR (Example 6); conditions: induction medium + T3 + Rosiglitazone, D4476, SB431542, ALK5 Inhibitor II 2 μM, PD0325901 1 μM, day 14, FIG. 6
Experimental: This was seeded in a 24-well plate at a concentration of 1×10^4 cells/well (day 0), and culturing was started at 5% CO2/95% humid air, 37° C. The next day, the culture supernatant was removed by suction and, as described in the Figure, a normal medium, an adipocyte induction medium, or an adipocyte induction medium added with each low-molecular-weight compound and the like was added at 500 μL/well. […] The concentrations of the additives are as follows: • T3: 1 nM • Rosiglitazone: 1 μM • D4476: 2 μM. • Pifithrin alpha [p53 inhibitor]: 5 μM • PD0325901: 1 μM • SB431542: 2 μM • ALK5 Inhibitor II: 2 μM. The culture medium was substituted by a fresh one every 3-4 days and the cells were cultured up to day 14.

[4] = tested on: human dermal fibroblasts (HDFs); test: BODIPY staining of lipid droplets (Example 7); conditions: induction medium + T3 + Rosiglitazone, compounds 2 μM, day 14, FIG. 7A, 7B
Experimental: as §1, with “each low-molecular-weight” for “each”, “[…]:” for “D4476:”, “SB431541:” for “Pifithrin alpha [p53 inhibitor]: 5 μM • SB431542:”, “inhibitor” for “Inhibitor”, “3-4” for “3 4”, “14. […] The cells were photographed at a magnification of 200 with a fluorescence microscope and the fluorescence intensity was measured.” for “14.”

[5] = tested on: human dermal fibroblasts (HDFs); test: UCP1 protein immunostaining, fluorescence intensity (Example 8); conditions: induction medium + T3 + Rosiglitazone, D4476, SB431541, ALK5 inhibitor II, FSK 2 μM, PD0325901 1 μM, day 14, FIG. 8A-C
Experimental: as §1, with “[…]:” for “D4476:”, “SB431541:” for “Pifithrin alpha [p53 inhibitor]: 5 μM • SB431542:”, “inhibitor” for “Inhibitor”, “II: 2 μM • PD0325901: 1 μM • Forskolin (FSK):” for “II:”, “3-4” for “3 4”, “14. […] The cells were photographed at a magnification of 200 with a fluorescence microscope and the fluorescence intensity was measured.” for “14.”

[6] = tested on: human dermal fibroblasts (HDFs); test: UCP1 gene mRNA, comparison of four inhibitors at 4-16 μM (Example 15); conditions: for induction efficiency into brown adipocytes (order): compound at 4, 8, 12 or 16 μM up to Day 9, UCP1 mRNA on day 14, FIG. 15; for UCP1 gene expression (conversion to brown adipocytes): compound at 4, 8, 12 or 16 μM up to Day 9, then without compound Day 9-14, FIG. 15
Experimental: (Day −1). In the control (Ctrl) group, the culture supernatant of the next day (Day 0) was removed by suction and the cells were cultured in a normal medium up to day 14 while substituting the medium with a fresh one once every other day. In groups other than the control (Ctrl) group, the culture supernatant was removed by suction on day 0, an adipocyte induction medium or an adipocyte induction medium added with any of ALK5 inhibitor II, SB431542, LY2157299 and D4476 at a concentration of 4 μM, 8 μM, 12 μM or 16 μM respectively was added at 1 mL/well.
Thereafter, the cells were cultured in an adipocyte induction medium free of any compound of ALK5 inhibitor II, SB431542, LY215799 and D4476 during Day 9-Day 14.

[7] = tested on: human dermal fibroblasts (HDFs); test: UCP1 protein immunostaining, comparison of four inhibitors (Example 16); conditions: ALK5 inhibitor II 4 μM, LY2157299 8 μM; for UCP1 protein expression by immunostaining (induction into brown adipocytes): SB431542 4 μM, D4476 4 μM up to Day 9, day 14, FIG. 16A, 16B
Experimental: Thereafter, the cells were cultured in an adipocyte induction medium free of any compound of ALK5 inhibitor II, SB431542, LY215799 and D4476 during Day 9-Day 14. On day 14, the medium was removed by suction from each well, and the cells were washed with PBS(−).

Row | Structure (SMILES) | Oil Red O staining [1] | mRNA expression of CIDEA gene (conversion to brown adipocytes) [2] | mRNA expression of AdipoQ gene (conversion to brown adipocytes) [3] | lipid droplets stained with BODIPY (conversion to brown adipocytes) [4] | UCP1 protein expression by immunostaining (conversion to brown adipocytes) [5] | induction efficiency into brown adipocytes (order) [6] | UCP1 gene expression (conversion to brown adipocytes) [6] | UCP1 protein expression by immunostaining (induction into brown adipocytes) [7] | strength of induction of UCP1 expression (order) ([7]; immunostaining day 14, FIG. 16)
1 | NC(=O)c1ccc(-c2nc(-c3ccc4c(c3)OCCO4)c(-c3ccccn3)[nH]2)cc1 [D4476, 4-[4-(2,3-dihydro-1,4-benzodioxin-6-yl)-5-(2-pyridlnyl-)1H-imidazol-2-yl]-benzamide] | Remarkable Oil Red O staining | converted to brown adipocytes expressing mRNA of CIDEA gene | converted to brown adipocytes expressing mRNA of AdipoQ gene | converted to brown adipocytes having lipid droplets stained with BODIPY | converted to brown adipocytes expressing UCP1 protein | ALK5 inhibitor II>LY2157299>SB431541>D4476 | converted to brown adipocytes strongly expressing UCP1 gene | induced into brown adipocytes expressing UCP1 protein | 
2 | Cc1cccc(-c2n[nH]cc2-c2ccc3ncccc3n2)n1 [ALK5 Inhibitor II, 2-(3-(6-Methylpyridin-2-yl)-1H-pyrazol-4-yl)-1,5-naphthyridine] | Remarkable Oil Red O staining | converted to brown adipocytes expressing mRNA of CIDEA gene | converted to brown adipocytes expressing mRNA of AdipoQ gene | converted to brown adipocytes having lipid droplets stained with BODIPY | converted to brown adipocytes expressing UCP1 protein | most strongly induced into brown adipocytes | converted to brown adipocytes strongly expressing UCP1 gene | induced into brown adipocytes expressing UCP1 protein | most strongly induced
